Assay results published in US11492335B2, “Aryl or heteroaryl triazolone derivatives or salts thereof, or pharmaceutical compositions comprising the same” (YUHAN CORPORATION, priority 2018, dated 2022).
Where a name gives a salt, the structure may show the parent alone.

Experiments:
Format in all cases: biochemical
[1] = target: T1, recombinant human VAP-1 (Homo sapiens, UniProt Q16853); assay: Activity on recombinant human VAP-1, Amplex Red HRP-coupled hydrogen peroxide assay, benzylamine substrate; conditions: recombinant human VAP-1, benzylamine substrate; read-out: Inhibitory Activity (IC50, nM) human VAP-1
T1 construct: purchased R&D systems
T1 sequence (Q16853 1-763): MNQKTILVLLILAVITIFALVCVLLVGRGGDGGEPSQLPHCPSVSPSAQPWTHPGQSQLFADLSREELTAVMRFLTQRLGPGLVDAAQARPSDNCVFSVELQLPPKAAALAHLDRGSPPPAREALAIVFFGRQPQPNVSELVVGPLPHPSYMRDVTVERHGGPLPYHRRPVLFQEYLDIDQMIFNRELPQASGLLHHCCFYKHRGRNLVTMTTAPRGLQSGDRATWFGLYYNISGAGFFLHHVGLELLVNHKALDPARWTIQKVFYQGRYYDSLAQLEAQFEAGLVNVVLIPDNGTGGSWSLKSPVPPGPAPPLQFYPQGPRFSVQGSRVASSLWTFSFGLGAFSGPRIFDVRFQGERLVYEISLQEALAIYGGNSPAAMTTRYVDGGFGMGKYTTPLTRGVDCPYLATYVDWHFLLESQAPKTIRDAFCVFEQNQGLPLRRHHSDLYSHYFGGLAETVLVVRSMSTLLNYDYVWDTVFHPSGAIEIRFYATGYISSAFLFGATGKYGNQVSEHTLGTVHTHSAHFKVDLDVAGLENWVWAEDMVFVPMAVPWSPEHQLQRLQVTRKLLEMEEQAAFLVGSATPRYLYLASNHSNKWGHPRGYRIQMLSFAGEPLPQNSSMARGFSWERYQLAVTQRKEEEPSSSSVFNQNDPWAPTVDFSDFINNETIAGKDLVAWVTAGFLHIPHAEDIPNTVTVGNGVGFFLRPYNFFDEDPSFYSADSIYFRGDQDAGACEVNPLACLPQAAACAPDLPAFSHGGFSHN
Procedure, shortened: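 Enzyme in 50 mM sodium phosphate (pH 7.4) is exposed to test compound for 30 min at 37 °C. Benzylamine (1 mM) with HRP and Amplex Red then starts the reaction, and the fluorescence rate, relative to a DMSO-only control, gives IC50.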

[2] = target: T2, recombinant human MAO-A (monoamine oxidase-A) (Homo sapiens, UniProt P21397); assay: Activity on recombinant human MAO-A, Amplex Red method, 0.5 mM tyramine substrate; conditions: 0.5 mM tyramine substrate, read-out: Inhibitory Activity (IC50, nM) MAO-A
T2 construct: purchased Sigma-Aldrich
T2 sequence (P21397 1-527): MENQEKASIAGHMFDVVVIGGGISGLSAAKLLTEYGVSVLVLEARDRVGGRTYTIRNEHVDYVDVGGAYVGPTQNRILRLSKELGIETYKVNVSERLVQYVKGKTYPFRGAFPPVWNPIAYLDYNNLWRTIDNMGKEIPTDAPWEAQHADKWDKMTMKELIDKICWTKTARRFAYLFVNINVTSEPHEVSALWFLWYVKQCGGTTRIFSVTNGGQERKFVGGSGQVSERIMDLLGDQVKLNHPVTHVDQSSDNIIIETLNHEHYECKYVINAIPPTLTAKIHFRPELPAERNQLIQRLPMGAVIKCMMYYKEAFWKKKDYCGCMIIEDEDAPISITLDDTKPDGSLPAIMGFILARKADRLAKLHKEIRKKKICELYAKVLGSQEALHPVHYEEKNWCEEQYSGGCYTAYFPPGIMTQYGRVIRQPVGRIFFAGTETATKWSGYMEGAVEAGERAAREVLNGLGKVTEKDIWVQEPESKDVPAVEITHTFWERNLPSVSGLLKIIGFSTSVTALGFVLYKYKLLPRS
Procedure, shortened: (§1)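 Enzyme in pH 7.4 phosphate buffer; 30 min, 37° C with compound (DMSO <1%); start with 200 uM Amplex Red + 1 U/mL HRP + tyramine 0.5 mM (MAO-A) or benzylamine 1 mM (MAO-B); kinetic read ex 544/em 590, 1-2 h; % rate decrease vs DMSO control → IC50, 4-parameter fit.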

[3] = target: T3, recombinant human MAO-B (monoamine oxidase-B) (Homo sapiens, UniProt P27338); assay: Activity on recombinant human MAO-B, Amplex Red method, 1 mM benzylamine substrate; conditions: 1 mM benzylamine substrate, read-out: Inhibitory Activity (IC50, nM) MAO-B
T3 construct: purchased Sigma-Aldrich
T3 sequence (P27338 1-520): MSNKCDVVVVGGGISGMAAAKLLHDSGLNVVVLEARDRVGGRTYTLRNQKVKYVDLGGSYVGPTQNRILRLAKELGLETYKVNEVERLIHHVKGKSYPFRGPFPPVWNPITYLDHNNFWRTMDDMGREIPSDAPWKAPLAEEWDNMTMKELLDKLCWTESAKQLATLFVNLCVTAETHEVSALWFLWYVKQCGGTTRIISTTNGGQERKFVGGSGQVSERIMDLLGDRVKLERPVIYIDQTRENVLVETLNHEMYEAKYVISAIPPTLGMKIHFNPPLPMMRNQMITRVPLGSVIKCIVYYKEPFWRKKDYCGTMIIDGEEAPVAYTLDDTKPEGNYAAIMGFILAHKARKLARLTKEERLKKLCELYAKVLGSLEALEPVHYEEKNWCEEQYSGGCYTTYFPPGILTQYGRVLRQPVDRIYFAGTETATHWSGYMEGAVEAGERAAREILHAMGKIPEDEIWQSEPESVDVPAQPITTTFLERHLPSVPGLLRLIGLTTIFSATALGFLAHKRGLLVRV
Procedure, shortened: as §1

[4] = target: T4, recombinant human DAO (diamine oxidase) (Homo sapiens, UniProt P19801); assay: Activity on recombinant human DAO, Amplex Red method, 1 mM putrescine substrate; conditions: recombinant human DAO, 1 mM putrescine substrate; read-out: Inhibitory Activity (IC50, nM) DAO
T4 construct: purchased R&D systems
T4 sequence (P19801 20-751): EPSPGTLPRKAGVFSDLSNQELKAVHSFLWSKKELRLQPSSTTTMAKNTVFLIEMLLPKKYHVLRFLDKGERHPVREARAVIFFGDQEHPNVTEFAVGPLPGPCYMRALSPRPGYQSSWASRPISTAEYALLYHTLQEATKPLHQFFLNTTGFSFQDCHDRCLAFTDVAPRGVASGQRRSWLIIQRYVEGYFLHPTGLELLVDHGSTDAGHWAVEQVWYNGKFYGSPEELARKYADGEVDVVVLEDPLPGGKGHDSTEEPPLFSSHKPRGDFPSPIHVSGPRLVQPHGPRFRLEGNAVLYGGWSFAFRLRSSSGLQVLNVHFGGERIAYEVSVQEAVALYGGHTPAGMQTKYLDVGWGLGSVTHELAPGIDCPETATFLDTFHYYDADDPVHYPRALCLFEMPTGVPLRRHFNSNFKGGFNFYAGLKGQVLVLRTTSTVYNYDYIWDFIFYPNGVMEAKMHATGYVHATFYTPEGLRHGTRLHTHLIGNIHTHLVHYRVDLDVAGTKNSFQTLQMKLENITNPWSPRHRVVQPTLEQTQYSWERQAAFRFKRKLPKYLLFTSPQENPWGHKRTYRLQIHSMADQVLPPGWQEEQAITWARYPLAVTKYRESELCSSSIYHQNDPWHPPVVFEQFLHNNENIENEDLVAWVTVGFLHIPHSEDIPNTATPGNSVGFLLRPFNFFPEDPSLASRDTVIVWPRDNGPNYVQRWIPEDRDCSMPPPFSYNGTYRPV
Procedure, shortened: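 Inhibition of recombinant human DAO (diamine oxidase, R&D systems) was assessed with the Amplex Red Hydrogen Peroxide Assay Kit. Hydrogen peroxide produced from 1 mM putrescine was detected through an HRP-coupled reaction that converts Amplex Red into fluorescent resorufin, read at 544 nm excitation and 590 nm emission. IC50 values came from four-parameter logistic fits in GraphPad Prism.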

Row | IC50 [1] [nM] | IC50 [2] [nM] | IC50 [3] [nM] | IC50 [4] [nM] | SMILES
1 | 88 | > 100000 | > 10000 | 4200 | Cc1ccc(-c2ccc3c(c2)NC(=O)CO3)nc1-n1cnn(C/C(=C/F)CN)c1=O [Example 216, 6-(6-{1-[(2E)-2-(aminomethyl)-3-fluoroprop-2-en-1-yl]-5-oxo-1,5-dihydro-4H-1,2,4-triazol-4-yl}-5-methylpyridin-2-yl)-2H-1,4-benzoxazin-3 (4H)-one hydrochloride]
2 | 2.2 | > 100000 | 110 | < 100 | CS(=O)(=O)c1ccc(-c2cnc(-n3cnn(C/C(=C/F)CN)c3=O)cn2)cc1 [Example 217, 2-[(2E)-2-(aminomethyl)-3-fluoroprop-2-en-1-yl]-4-{5-[4-(methylsulfonyl)phenyl]pyrazin-2-yl}-2,4-dihydro-3H-1,2,4-triazol-3-one]
3 | 1.9 | > 100000 | 49 | < 100 | NC/C(=C\F)Cn1ncn(-c2cnc(-c3ccc(-c4nc[nH]n4)cc3)cn2)c1=O [Example 218, 2-[(2E)-2-(aminomethyl)-3-fluoroprop-2-en-1-yl]-4-{5-[4-(1H-1,2,4-triazol-3-yl)phenyl]pyrazin-2-yl}-2,4-dihydro-3H-1,2,4-triazol-3-one]
4 | 2.3 | > 100000 | 41 | < 100 | NC/C(=C\F)Cn1ncn(-c2cnc(-c3cccc(-c4nc[nH]n4)c3)cn2)c1=O [Example 219, 2-[(2E)-2-(aminomethyl)-3-fluoroprop-2-en-1-yl]-4-{5-[3-(1H-1,2,4-triazol-3-yl)phenyl]pyrazin-2-yl}-2,4-dihydro-3H-1,2,4-triazol-3-one]
5 | 1.8 | > 100000 | 396 | < 100 | CC(=O)Nc1cc(-c2cnc(-n3cnn(C/C(=C/F)CN)c3=O)cn2)ccn1 [Example 220, N-[4-(5-{1-[(2E)-2-(aminomethyl)-3-fluoroprop-2-en-1-yl]-5-oxo-1,5-dihydro-4H-1,2,4-triazol-4-yl}pyrazin-2-yl)pyridin-2-yl]acetamide]
6 | 1.9 | > 100000 | 650 | < 100 | NC/C(=C\F)Cn1ncn(-c2cnc(-c3ccc(N4CCOCC4)nc3)cn2)c1=O [Example 221, 2-[(2E)-2-(aminomethyl)-3-fluoroprop-2-en-1-yl]-4-{5-[6-(morpholin-4-yl)pyridin-3-yl]pyrazin-2-yl}-2,4-dihydro-3H-1,2,4-triazol-3-one]
7 | 0.94 | 770 | 22 | < 100 | NC/C(=C\F)Cn1ncn(-c2cnc(-c3ccc4nonc4c3)cn2)c1=O [Example 222, 2-[(2E)-2-(aminomethyl)-3-fluoroprop-2-en-1-yl]-4-[5-(2,1,3-benzooxadiazol-5-yl)pyrazin-2-yl]-2,4-dihydro-3H-1,2,4-triazol-3-one]
8 | 2.2 | 21700 | 10.5 | < 100 | NC/C(=C\F)Cn1ncn(-c2cnc(-c3ccc4cn[nH]c4c3)cn2)c1=O [Example 223, 2-[(2E)-2-(aminomethyl)-3-fluoroprop-2-en-1-yl]-4-[5-(1H-indazol-6-yl)pyrazin-2-yl]-2,4-dihydro-3H-1,2,4-triazol-3-one]
9 | 1.3 | > 100000 | 49 | < 100 | NC/C(=C\F)Cn1ncn(-c2cnc(-c3ccc4sc(N)nc4c3)cn2)c1=O [Example 224, 4-[5-(2-amino-1,3-benzothiazol-5-yl)pyrazin-2-yl]-2-[(2E)-2-(aminomethyl)-3-fluoroprop-2-en-1-yl]-2,4-dihydro-3H-1,2,4-triazol-3-one]
10 | 1 | > 100000 | 53 | < 100 | CC(=O)Nc1nc2cc(-c3cnc(-n4cnn(C/C(=C/F)CN)c4=O)cn3)ccc2s1 [Example 225, N-[5-(5-{1-[(2E)-2-(aminomethyl)-3-fluoroprop-2-en-1-yl]-5-oxo-1,5-dihydro-4H-1,2,4-triazol-4-yl}pyrazin-2-yl)-1,3-benzothiazol-2-yl]acetamide]
11 | 1.4 | > 100000 | 11.4 | < 100 | CS(=O)(=O)c1ccc(-c2cnc(-n3cnn(C/C(=C\F)CN)c3=O)s2)cc1 [Example 226, 2-[(2Z)-2-(aminomethyl)-3-fluoroprop-2-en-1-yl]-4-{5-[4-(methylsulfonyl)phenyl]-1,3-thiazol-2-yl}-2,4-dihydro-3H-1,2,4-triazol-3-one hydrochloride]
12 | 0.61 | > 100000 | 164 | 0.24 | NC/C(=C\F)Cn1ncn(-c2ncc(-c3ccc(-c4nnc[nH]4)cc3)s2)c1=O [Example 227, 2-[(2E)-2-(aminomethyl)-3-fluoroprop-2-en-1-yl]-4-{5-[4-(4H-1,2,4-triazol-3-yl)phenyl]-1,3-thiazol-2-yl}-2,4-dihydro-3H-1,2,4-triazol-3-one]
